Source: patent US9061967B2 (priority 2010, dated 2015)
“And” between values parts separate entries of the source, which are not always exact repeats. Equal values may be shown once.

Columns and labels:
[1] = tested on: cucumber downy mildew (Pseudoperonospora cubensis); assay: whole plant or invertebrate; assay type: in vivo; conditions: for pest or weed control at 3.125 µg/mL / pest or weed control at 12.5 µg/mL / pest or weed control at 50 µg/mL: Pseudoperonospora cubensis, 168 h, read-out: Protectant activity (%) against cucumber downy mildew in vivo
[2] = tested on: rice blast (Magnaporthe grisea); assay: microbe, parasite or virus in culture; assay type: cell-based; conditions: for Activity against rice blast in vitro (%): Table 10; for inhibition at 0.03 µg/mL / inhibition at 0.3 µg/mL: Pyricularia oryzae, read-out: Inhibition rate against rice blast (%)
[3] = tested on: cucumber gray mold (Botrytis cinerea); assay: microbe, parasite or virus in culture; assay type: cell-based; conditions: read-out: Inhibition rate against cucumber gray mold (%)
[4] = tested on: corn rust (Puccinia sorghi)
[5] = tested on: rice sheath blight (Rhizoctonia solani Palo); assay type: cell-based
[6] = tested on: cucumber fusarium wilt (Fusarium oxysporum f. sp.); assay type: cell-based
[7] = tested on: pear scab (Fusicladium pirina); assay type: cell-based
[8] = tested on: cotton nthracnose (Colletotrichum gossypii Southw.); assay type: cell-based
[9] = tested on: rape sclertiniose (Sclerotinia sclerotiorum); assay type: cell-based

Row | Compound | pest or weed control at 3.125 µg/mL [1] | pest or weed control at 12.5 µg/mL [1] | pest or weed control at 50 µg/mL [1] | inhibition at 0.03 µg/mL [2] | inhibition at 0.3 µg/mL [2] | inhibition at 0.03 µg/mL [3] | inhibition at 0.1 µg/mL [3] | inhibition at 0.3 µg/mL [3] | also measured
1 | COc1ccc(C(=CC(=O)N2CCOCC2)c2ccc(Cl)cc2)cc1OC [dimethomorph] | 35% | 80% | 100% |  |  |  |  |  | 
2 | Cc1cc([N+](=O)[O-])cc([N+](=O)[O-])c1Nc1c(Cl)cc(Cl)cc1Cl [contrast ACS] | 0% | 0% | 0% | 0% | 0% | 0% | 0% | 0% | Activity against rice blast in vitro (%) ([2]; 0.9 mg/L): 0%; Activity against rice blast in vitro (%) ([2]; 2.8 mg/L): 0%; Activity against rice blast in vitro (%) ([2]; 8.3 mg/L): 0%; Activity against rice blast in vitro (%) ([2]; 25 mg/L): 0%; Protectant activity against cucumber downy mildew in vivo (%) ([1]; in vivo): 0%; Protectant activity (%) against corn rust in vivo [4]: 0%
3 | O=[N+]([O-])c1cc(C(F)(F)F)c(Cl)c([N+](=O)[O-])c1Nc1ncc(C(F)(F)F)cc1Cl [fluazinam] | 40% | 95% | 100% | 50% | 100% | 0% | 80% | 100% | Activity in vitro (%), rice sheath blight [5]: 97% and 83% and 69%; Activity in vitro (%), cucumber fusarium wilt [6]: 92% and 85% and 56%; Activity in vitro (%), pear scab [7]: 94% and 89% and 47%; Activity in vitro (%), cotton nthracnose [8]: 100% and 97% and 71%; Activity in vitro (%), rape sclertiniose [9]: 100% and 97% and 57%
4 | c1ccc(Nc2ccccc2)cc1 [diphenylamine] | 0% | 0% | 0% |  |  |  |  |  | 
5 | Nc1c(Cl)cc([N+](=O)[O-])cc1Cl [intermediate C] | 0% | 0% | 0% |  |  |  |  |  | 
6 | Cc1c(Cl)c([N+](=O)[O-])cc([N+](=O)[O-])c1Cl [intermediate B] | 0% | 0% | 0% |  |  |  |  |  | 
